From patent US9708308B2, “Factor IXa inhibitors” (Merck Sharp & Dohme Corp., priority 2012, dated 2017)

Target: Factor IXa (Homo sapiens, UniProt P00740)
Assay: Determination of inhibitory activity against Factor IXa (cleavage of fluorescent peptide substrate)
Type: biochemical
Conditions: cleavage of fluorescent peptide CH3SO2-D-CHG-Gly-Arg-AFC, release of AFC; read-out: FIXa IC50
In short: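 Factor IXa activity followed via cleavage of CH3SO2-D-CHG-Gly-Arg-AFC, releasing AFC. Fluorescence read at excitation 405 nm, emission 510 nm.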

Chain of Factor IXa (P00740 227-461 limits assumed): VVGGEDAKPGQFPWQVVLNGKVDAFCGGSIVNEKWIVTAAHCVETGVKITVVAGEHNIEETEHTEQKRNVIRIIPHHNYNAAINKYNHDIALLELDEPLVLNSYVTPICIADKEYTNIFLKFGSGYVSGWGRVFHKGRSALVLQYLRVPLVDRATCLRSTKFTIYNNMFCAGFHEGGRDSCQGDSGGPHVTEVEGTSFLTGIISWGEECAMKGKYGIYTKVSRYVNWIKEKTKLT
Chain of Factor IXa (P00740 47-191 partner limits assumed): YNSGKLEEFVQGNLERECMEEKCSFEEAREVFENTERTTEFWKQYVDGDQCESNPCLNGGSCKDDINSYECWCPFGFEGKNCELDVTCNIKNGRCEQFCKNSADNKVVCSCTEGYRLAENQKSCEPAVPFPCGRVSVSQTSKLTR

Row | Structure (SMILES) | IC50 [nM]
1 | COc1nccc(-n2ccc(N3CCO[C@H]([C@@](C)(O)C(=O)Nc4cc(F)c5c(N)noc5c4)C3=O)n2)n1 [Example 141, (R)—N-(3-amino-4-fluorobenzo[d]isoxazol-6-yl)-2-hydroxy-2-((R)-4-(1-(2-methoxypyrimidin-4-yl)-1H-pyrazol-3-yl)-3-oxomorpholin-2-yl)propanamide] | 107
2 | C[C@](O)(C(=O)Nc1cnc2c(N)noc2c1)[C@H]1OCCN(c2ccn(-c3ccncc3)n2)C1=O [Example 144, (R)—N-(3-aminoisoxazolo[4,5-b]pyridin-6-yl)-2-hydroxy-2-((R)-3-oxo-4-(1-(pyridin-4-yl)-1H-pyrazol-3-yl)morpholin-2-yl)propanamide] | 458
3 | COc1cc(-n2ccc(N3CCO[C@H]([C@@](C)(O)C(=O)Nc4ccc5[nH]c(C)c(Cl)c5c4)C3=O)n2)ccn1 [Example 145, (R)—N-(3-chloro-2-methyl-1H-indol-5-yl)-2-hydroxy-2-((R)-4-(1-(2-methoxypyridin-4-yl)-1H-pyrazol-3-yl)-3-oxomorpholin-2-yl)propanamide] | 1100
4 | Cc1[nH]c2ccc(NC(=O)[C@](C)(O)[C@H]3OCCN(c4ccn(-c5ccnnc5)n4)C3=O)cc2c1Cl [Example 146, (R)—N-(3-chloro-2-methyl-1H-indol-5-yl)-2-hydroxy-2-((R)-3-oxo-4-(1-(pyridazin-4-yl)-1H-pyrazol-3-yl)morpholin-2-yl)propanamide] | 28.1
5 | C[C@](O)(C(=O)Nc1ccc2c(N)noc2c1)[C@@]1(C)OCCN(c2ccn(-c3ccnnc3)n2)C1=O [Example 148, (R)—N-(3-Aminobenzo[d]isoxazol-6-yl)-2-hydroxy-2-((R)-2-methyl-3-oxo-4-(1-(pyridazin-4-yl)-1H-pyrazol-3-yl)morpholin-2-yl)propanamide] | 62.6
6 | COc1cc(-n2ccc(N3CCO[C@](C)([C@@](C)(O)C(=O)Nc4ccc5c(N)noc5c4)C3=O)n2)cnn1 [Example 149, (R)—N-(3-aminobenzo[d]isoxazol-6-yl)-2-hydroxy-2-((R)-4-(1-(6-methoxypyridazin-4-yl)-1H-pyrazol-3-yl)-2-methyl-3-oxomorpholin-2-yl)propanamide] | 92.4
7 | C[C@](O)(C(=O)Nc1ccc(CN)cc1)[C@H]1OCCN(c2ccn(-c3ccncc3)n2)C1=O [Example 150, (R)—N-(4-(aminomethyl)phenyl)-2-hydroxy-2-((R)-3-oxo-4-(1-(pyridin-4-yl)-1H-pyrazol-3-yl)morpholin-2-yl)propanamide] | 66.2
8 | C[C@](O)(C(=O)Nc1ccc(CN)c(F)c1)[C@H]1OCCN(c2ccn(-c3ccncc3)n2)C1=O [Example 151, (R)—N-(4-(aminomethyl)-3-fluorophenyl)-2-hydroxy-2-((R)-3-oxo-4-(1-(pyridin-4-yl)-1H-pyrazol-3-yl)morpholin-2-yl)propanamide] | 70

The next compounds have a lower IC50 than those just listed; values first:

Row | IC50 [nM] | Structure (SMILES)
9 | 22.1 | COc1nccc(-n2ccc(N3CCO[C@](C)([C@@H](O)C(=O)Nc4cc(F)c5c(N)noc5c4)C3=O)n2)n1 [Example 143, (R)—N-(3-amino-4-fluorobenzo[d]isoxazol-6-yl)-2-hydroxy-2-((R)-4-(1-(2-methoxypyrimidin-4-yl)-1H-pyrazol-3-yl)-2-methyl-3-oxomorpholin-2-yl)acetamide]
10 | 9.69 | C[C@]1([C@@H](O)C(=O)Nc2ccc(CN)cc2)OCCN(c2ccn(-c3ccncc3)n2)C1=O [Example 152, (R)—N-(4-(aminomethyl)phenyl)-2-hydroxy-2-((R)-2-methyl-3-oxo-4-(1-(pyridin-4-yl)-1H-pyrazol-3-yl)morpholin-2-yl)acetamide]
11 | 6.27 | C[C@]1([C@@H](O)C(=O)Nc2cc(F)c3c(N)noc3c2)OCCN(c2ccn(-c3ccnnc3)n2)C1=O [Example 142, (R)—N-(3-amino-4-fluorobenzo[d]isoxazol-6-yl)-2-hydroxy-2-((R)-2-methyl-3-oxo-4-(1-(pyridazin-4-yl)-1H-pyrazol-3-yl)morpholin-2-yl)acetamide]
